Measurements taken from patent US20240108702A1, “Use Of Naturally Occurring Cyclic Peptides For Treatment Of SARS-COV-2 Infection” (The University of Southern California, priority 2021, published 2024).
Where a SMILES comes first, the peptide text is derived from it. Bridges are numbered along the chain shown (N, C = ends).

Key:
in vivo [1] = details: both, cynomolgus monkey; for AUC(0-inf) / AUC / clearance / Cmax / MRT inf / Vd: iv, cynomolgus; for AUC(0-inf): AUC0-∞; for AUC: AUCτ; for clearance: CL; for MRT inf: MRTinf; for Vd: Vss
in vivo [2] = details: both, cynomolgus monkey, iv
in vivo [3] = details: both, cynomolgus monkey, iv; remark: listed apart in the source
in vivo [4] = details: rat
[5] = Mouse model of LPS-induced acute lung injury (ALI), subcutaneous injection; details: in vivo, sc
[6] = 0.3 mg/kg, 0.3 mg/kg i.v., Day 1, mean
[7] = 1 mg/kg, 1 mg/kg i.v., Day 1, mean
[8] = 3 mg/kg, 3 mg/kg i.v., Day 1, mean
[9] = 5 mg/kg, 5 mg/kg i.v., Day 1, mean
[10] = 5 mg/kg/day, 5 mg/kg/day i.v., Day 10, mean
[11] = 10 mg/kg, 10 mg/kg i.v., Day 1, mean
[12] = 10 mg/kg/day, 10 mg/kg/day i.v., Day 10, mean
[13] = 15 mg/kg, 15 mg/kg i.v., Day 1, mean
[14] = 15 mg/kg/day, 15 mg/kg/day i.v., Day 4, mean
[15] = 15 mg/kg/day, 15 mg/kg/day i.v., Day 7, mean
[16] = 15 mg/kg/day, 15 mg/kg/day i.v., Day 10, mean

For `CC[C@H](C)[C@@H]1NC(=O)[C@@H]2CSSC[C@H](NC(=O)[C@H](CCCNC(=N)N)NC(=O)[C@@H]3CSSC[C@H](NC1=O)C(=O)N[C@@H]([C@@H](C)O)C(=O)N[C@@H](CCCNC(=N)N)C(=O)NCC(=O)N[C@@H](Cc1ccccc1)C(=O)N3)C(=O)N[C@@H](CC(C)C)C(=O)N[C@H]1CSSC[C@H](NC(=O)[C@H](C(C)C)NC(=O)CNC(=O)[C@H](CCCNC(=N)N)NC(=O)[C@H](CCCNC(=N)N)NC1=O)C(=O)N[C@@H](CCCNC(=N)N)C(=O)N2` [Peptide 1] (cyclo(GFCRCLCRRGVCRCICTR); disulfide 3-16, 5-14, 7-12), the mortality (cynomolgus monkeys, 10-day repeat dose, any dose level) was “no mortality or unscheduled euthanasia occurred”, the “urinalysis, ophthalmologic assessments, electrocardiogram” value (cynomolgus monkeys, any dose level, data not shown) was “no treatment-related changes” and the food consumption (cynomolgus, females at 10 mg/kg/day and both sexes at 15 mg/kg/day, non-adverse) was “Treatment-related decrease in food consumption”. The “microscopic findings, lung” value (cynomolgus, males ≥10 mg/kg/day and females ≥5 mg/kg/day, Day 11, resolved by end of recovery) was “minimal to mild intravascular thrombosis (thromboembolism)”, the tolerability (male and female cynomolgus monkeys, doses up to 15 mg/kg) was “well tolerated” and the half-life (in vivo [1]) was 572 min. The half-life (in vivo [1]; 15 mg/kg) was 2830 min, the AUC(0-inf) (in vivo [1]; [6]) was 617 ng·h/mL and the AUC (in vivo [1]; [6]) was 591 ng·h/mL. The clearance (in vivo [1]; [6]) was 8.3 mL/min/kg, the Cmax (in vivo [1]; [6]) was 582 ng/mL and the MRT inf (in vivo [1]; [6]) was 1.24 h. It also gave a Vd (in vivo [1]; [6]) of 0.626 L/kg, an AUC(0-inf) (in vivo [1]; [7]) of 3880 ng·h/mL and an AUC (in vivo [1]; [7]) of 3820 ng·h/mL. It also gave a clearance (in vivo [1]; [7]) of 4.43 mL/min/kg, a Cmax (in vivo [1]; [7]) of 2560 ng/mL and an MRT inf (in vivo [1]; [7]) of 1.82 h. For the same molecule, the Vd (in vivo [1]; [7]) was 0.486 L/kg, the AUC(0-inf) (in vivo [1]; [8]) was 10700 ng·h/mL and the AUC (in vivo [1]; [8]) was 10300 ng·h/mL. It also gave a clearance (in vivo [1]; [8]) of 4.78 mL/min/kg, a Cmax (in vivo [1]; [8]) of 4750 ng/mL and an MRT inf (in vivo [1]; [8]) of 4.3 h. For the same molecule, the Vd (in vivo [1]; [8]) was 1.22 L/kg, the AUC(0-inf) (in vivo [1]; [9]) was 27200 ng·h/mL and the AUC (in vivo [1]; [9]) was 27200 ng·h/mL. For the same molecule, the clearance (in vivo [1]; [9]) was 3.13 mL/min/kg, the Cmax (in vivo [1]; [9]) was 10700 ng/mL and the MRT inf (in vivo [1]; [9]) was 2.94 h. The Vd (in vivo [1]; [9]) was 0.55 L/kg, the AUC(0-inf) (in vivo [1]; [10]) was 40000 ng·h/mL and the AUC (in vivo [1]; [10]) was 38900 ng·h/mL. It also gave a clearance (in vivo [1]; [10]) of 2.27 mL/min/kg, a Cmax (in vivo [1]; [10]) of 11700 ng/mL and an MRT inf (in vivo [1]; [10]) of 4.84 h. For the same molecule, the Vd (in vivo [1]; [10]) was 0.645 L/kg, the AUC(0-inf) (in vivo [1]; [11]) was 76800 ng·h/mL and the AUC (in vivo [1]; [11]) was 76100 ng·h/mL. The clearance (in vivo [1]; [11]) was 2.38 mL/min/kg, the Cmax (in vivo [1]; [11]) was 26700 ng/mL and the MRT inf (in vivo [1]; [11]) was 4.4 h. For the same molecule, the Vd (in vivo [1]; [11]) was 0.629 L/kg, the AUC(0-inf) (in vivo [1]; [12]) was 125000 ng·h/mL and the AUC (in vivo [1]; [12]) was 118000 ng·h/mL. For the same molecule, the clearance (in vivo [1]; [12]) was 1.48 mL/min/kg, the Cmax (in vivo [1]; [12]) was 27300 ng/mL and the MRT inf (in vivo [1]; [12]) was 7.2 h. For the same molecule, the Vd (in vivo [1]; [12]) was 0.624 L/kg, the AUC(0-inf) (in vivo [1]; [13]) was 142000 ng·h/mL and the AUC (in vivo [1]; [13]) was 138000 ng·h/mL. For the same molecule, the clearance (in vivo [1]; [13]) was 1.9 mL/min/kg, the Cmax (in vivo [1]; [13]) was 46500 ng/mL and the MRT inf (in vivo [1]; [13]) was 5.48 h. For the same molecule, the Vd (in vivo [1]; [13]) was 0.629 L/kg, the AUC(0-inf) (in vivo [1]; [14]) was 167000 ng·h/mL and the AUC(0-inf) (in vivo [1]; [15]) was 188000 ng·h/mL. It also gave an AUC(0-inf) (in vivo [1]; [16]) of 213000 ng·h/mL, an AUC (in vivo [1]; [14]) of 140000 ng·h/mL and an AUC (in vivo [1]; [15]) of 154000 ng·h/mL. The AUC (in vivo [1]; [16]) was 173000 ng·h/mL, the clearance (in vivo [1]; [14]) was 1.78 mL/min/kg and the clearance (in vivo [1]; [15]) was 1.63 mL/min/kg. The clearance (in vivo [1]; [16]) was 1.72 mL/min/kg, the Cmax (in vivo [1]; [14]) was 31100 ng/mL and the Cmax (in vivo [1]; [15]) was 32800 ng/mL. The Cmax (in vivo [1]; [16]) was 32200 ng/mL, the MRT inf (in vivo [1]; [14]) was 11.8 h and the MRT inf (in vivo [1]; [15]) was 12.3 h. The MRT inf (in vivo [1]; [16]) was 12 h, the Vd (in vivo [1]; [14]) was 1.26 L/kg and the Vd (in vivo [1]; [15]) was 1.19 L/kg. For the same molecule, the Vd (in vivo [1]; [16]) was 1.14 L/kg, the NOAEL at 10 days (in vivo [2]) was 15 mg/kg/day and the MTD at 7 days (in vivo [3]) was 15 mg/kg. The NOAEL at 7 days (in vivo [3]; 15 mg/kg) was 15 mg/kg/day, the MTD (in vivo [4]) was 20 mg/kg and the AUC(0-inf) ([5]; 5 mg/kg) was 3870 ng·h/mL. The AUC(0-inf) ([5]; 25 mg/kg) was 9000 ng·h/mL.
